Experimental data taken from patent US9969694B2, “N-(arylalkyl)-N′-pyrazolyl-urea, thiourea, guanidine and cyanoguanidine compounds as TrkA kinase inhibitors” (Array BioPharma Inc., priority 2012, dated 2018).
One block for each compound: values may come before it.

Columns and labels:
Experiment in all cases: Off-Target Kinase Profiling
Format in all cases: biochemical
Settings in all cases: 10 μM; ATP near Km
MELK = biological target: T1, MELK (Homo sapiens, UniProt Q14680)
T1 construct: purchased Millipore, Inc. (KinaseProfiler service)
Experimental: (§1) Representative compounds of the invention (Examples 33 and 10) were tested for off-target kinase activity at a concentration of 10 μM by Millipore, Inc. in their KinaseProfiler™ service against all the kinases available in their full kinase panel. Compounds were run in duplicate at a concentration of ATP near the Km for each individual kinase according to Millipore's specifications. The results are shown in Table B. Data are reported as percent of control (POC) and are the average of the two replicates.

MAPKAP-K3 = biological target: T2, MAPKAP-K3 (Homo sapiens, UniProt Q16644)
T2 construct: purchased Millipore, Inc. (KinaseProfiler service)
Experimental: as §1

TNK2 = biological target: T3, TNK2 (Homo sapiens, UniProt Q07912)
T3 construct: purchased Millipore, Inc. (KinaseProfiler service)
Experimental: as §1

Bmx = biological target: T4, Bmx (Homo sapiens, UniProt P51813)
T4 construct: purchased Millipore (KinaseProfiler service)
Experimental: as §1

ZAP-70 = biological target: T5, ZAP-70 (Homo sapiens, UniProt P43403)
T5 construct: purchased Millipore, Inc. (KinaseProfiler service)
Experimental: as §1

DMPK = biological target: T6, DMPK (Homo sapiens, UniProt Q09013)
T6 construct: purchased Millipore, Inc. (KinaseProfiler service)
Experimental: as §1

IKKbeta = biological target: T7, IKKbeta (Homo sapiens, UniProt O14920)
T7 construct: purchased Millipore, Inc. (KinaseProfiler service)
Experimental: as §1

PKCdelta = biological target: T8, PKCdelta (Homo sapiens, UniProt Q05655)
T8 construct: purchased Millipore, Inc. (KinaseProfiler service)
Experimental: as §1

MLK1 = biological target: T9, MLK1 (Homo sapiens, UniProt P80192)
T9 construct: purchased Millipore, Inc. (KinaseProfiler service)
Experimental: as §1

BTK = biological target: T10, BTK (Homo sapiens, UniProt Q06187)
T10 construct: purchased Millipore (KinaseProfiler service)
Experimental: as §1

Syk = biological target: T11, Syk (Homo sapiens, UniProt P43405)
T11 construct: purchased Millipore, Inc. (KinaseProfiler service)
Experimental: as §1

AKT3 = biological target: T12, AKT3 (Homo sapiens, UniProt Q9Y243)
T12 construct: purchased Millipore (KinaseProfiler service)
Experimental: as §1

SIK = biological target: T13, SIK (Homo sapiens, UniProt P57059)
T13 construct: purchased Millipore, Inc. (KinaseProfiler service)
Experimental: as §1

CK1gamma2 = biological target: T14, CK1gamma2 (Homo sapiens, UniProt P78368)
T14 construct: purchased Millipore, Inc. (KinaseProfiler service)
Experimental: as §1

GRK5 = biological target: T15, GRK5 (Homo sapiens, UniProt P34947)
T15 construct: purchased Millipore, Inc. (KinaseProfiler service)
Experimental: as §1

EphB1 = biological target: T16, EphB1 (Homo sapiens, UniProt P54762)
T16 construct: purchased Millipore, Inc. (KinaseProfiler service)
Experimental: as §1

Pim-2 = biological target: T17, Pim-2 (Homo sapiens, UniProt Q9P1W9)
T17 construct: purchased Millipore, Inc. (KinaseProfiler service)
Experimental: as §1

ROCK-I = biological target: T18, ROCK-I (Homo sapiens, UniProt Q13464)
T18 construct: purchased Millipore, Inc. (KinaseProfiler service)
Experimental: as §1

EGFR = biological target: T19, EGFR (Homo sapiens, UniProt P00533)
T19 construct: purchased Millipore, Inc. (KinaseProfiler service)
Experimental: as §1

PKCbetaII = biological target: T20, PKCbetaII (Homo sapiens, UniProt P05771)
T20 construct: purchased Millipore, Inc. (KinaseProfiler service)
Experimental: as §1

WNK3 = biological target: T21, WNK3 (Homo sapiens, UniProt Q9BYP7)
T21 construct: purchased Millipore, Inc. (KinaseProfiler service)
Experimental: as §1

MSSK1 = biological target: T22, MSSK1 (Homo sapiens, UniProt Q9UPE1)
T22 construct: purchased Millipore, Inc. (KinaseProfiler service)
Experimental: as §1

TSSK2 = biological target: T23, TSSK2 (Homo sapiens, UniProt Q96PF2)
T23 construct: purchased Millipore, Inc. (KinaseProfiler service)
Experimental: as §1

MYLK = biological target: T24, MYLK (Homo sapiens, UniProt Q15746)
T24 construct: purchased Millipore, Inc. (KinaseProfiler service)
Experimental: as §1

MST2 = biological target: T25, MST2 (Homo sapiens, UniProt Q13188)
T25 construct: purchased Millipore, Inc. (KinaseProfiler service)
Experimental: as §1

Abl-P = biological target: T26, Abl-P (Homo sapiens, UniProt P00519)
T26 construct: purchased Millipore (KinaseProfiler service)
Experimental: as §1

Plk3 = biological target: T27, Plk3 (Homo sapiens, UniProt Q9H4B4)
T27 construct: purchased Millipore, Inc. (KinaseProfiler service)
Experimental: as §1

AURKA = biological target: T28, AURKA (Homo sapiens, UniProt O14965)
T28 construct: purchased Millipore (KinaseProfiler service)
Experimental: as §1

CAMK4 = biological target: T29, CAMK4 (Homo sapiens, UniProt Q16566)
T29 construct: purchased Millipore (KinaseProfiler service)
Experimental: as §1

p38gamma = biological target: T30, p38gamma (Homo sapiens, UniProt P53778)
T30 construct: purchased Millipore, Inc. (KinaseProfiler service)
Experimental: as §1

ERK1 = biological target: T31, ERK1 (Homo sapiens, UniProt P27361)
T31 construct: purchased Millipore, Inc. (KinaseProfiler service)
Experimental: as §1

PKCzeta = biological target: T32, PKCzeta (Homo sapiens, UniProt Q05513)
T32 construct: purchased Millipore, Inc. (KinaseProfiler service)
Experimental: as §1

EphB2 = biological target: T33, EphB2 (Homo sapiens, UniProt P29323)
T33 construct: purchased Millipore, Inc. (KinaseProfiler service)
Experimental: as §1

NEK6 = biological target: T34, NEK6 (Homo sapiens, UniProt Q9HC98)
T34 construct: purchased Millipore, Inc. (KinaseProfiler service)
Experimental: as §1

FGFR1 = biological target: T35, FGFR1 (Homo sapiens, UniProt P11362)
T35 construct: purchased Millipore, Inc. (KinaseProfiler service)
Experimental: as §1

Abl2 = biological target: T36, Abl2 (Homo sapiens, UniProt P42684)
T36 construct: purchased Millipore (KinaseProfiler service)
Experimental: as §1

TrkA = biological target: T37, TrkA (Homo sapiens, UniProt P04629)
T37 construct: purchased Millipore, Inc. (KinaseProfiler service)
Experimental: as §1

NEK3 = biological target: T38, NEK3 (Homo sapiens, UniProt P51956)
T38 construct: purchased Millipore, Inc. (KinaseProfiler service)
Experimental: as §1

RIPK2 = biological target: T39, RIPK2 (Homo sapiens, UniProt O43353)
T39 construct: purchased Millipore, Inc. (KinaseProfiler service)
Experimental: as §1

Rsk2 = biological target: T40, Rsk2 (Homo sapiens, UniProt P51812)
T40 construct: purchased Millipore, Inc. (KinaseProfiler service)
Experimental: as §1

MAP3K5 = biological target: T41, MAP3K5 (Homo sapiens, UniProt Q99683)
T41 construct: purchased Millipore, Inc. (KinaseProfiler service)
Experimental: as §1

T36 sequence (P42684 whole entry): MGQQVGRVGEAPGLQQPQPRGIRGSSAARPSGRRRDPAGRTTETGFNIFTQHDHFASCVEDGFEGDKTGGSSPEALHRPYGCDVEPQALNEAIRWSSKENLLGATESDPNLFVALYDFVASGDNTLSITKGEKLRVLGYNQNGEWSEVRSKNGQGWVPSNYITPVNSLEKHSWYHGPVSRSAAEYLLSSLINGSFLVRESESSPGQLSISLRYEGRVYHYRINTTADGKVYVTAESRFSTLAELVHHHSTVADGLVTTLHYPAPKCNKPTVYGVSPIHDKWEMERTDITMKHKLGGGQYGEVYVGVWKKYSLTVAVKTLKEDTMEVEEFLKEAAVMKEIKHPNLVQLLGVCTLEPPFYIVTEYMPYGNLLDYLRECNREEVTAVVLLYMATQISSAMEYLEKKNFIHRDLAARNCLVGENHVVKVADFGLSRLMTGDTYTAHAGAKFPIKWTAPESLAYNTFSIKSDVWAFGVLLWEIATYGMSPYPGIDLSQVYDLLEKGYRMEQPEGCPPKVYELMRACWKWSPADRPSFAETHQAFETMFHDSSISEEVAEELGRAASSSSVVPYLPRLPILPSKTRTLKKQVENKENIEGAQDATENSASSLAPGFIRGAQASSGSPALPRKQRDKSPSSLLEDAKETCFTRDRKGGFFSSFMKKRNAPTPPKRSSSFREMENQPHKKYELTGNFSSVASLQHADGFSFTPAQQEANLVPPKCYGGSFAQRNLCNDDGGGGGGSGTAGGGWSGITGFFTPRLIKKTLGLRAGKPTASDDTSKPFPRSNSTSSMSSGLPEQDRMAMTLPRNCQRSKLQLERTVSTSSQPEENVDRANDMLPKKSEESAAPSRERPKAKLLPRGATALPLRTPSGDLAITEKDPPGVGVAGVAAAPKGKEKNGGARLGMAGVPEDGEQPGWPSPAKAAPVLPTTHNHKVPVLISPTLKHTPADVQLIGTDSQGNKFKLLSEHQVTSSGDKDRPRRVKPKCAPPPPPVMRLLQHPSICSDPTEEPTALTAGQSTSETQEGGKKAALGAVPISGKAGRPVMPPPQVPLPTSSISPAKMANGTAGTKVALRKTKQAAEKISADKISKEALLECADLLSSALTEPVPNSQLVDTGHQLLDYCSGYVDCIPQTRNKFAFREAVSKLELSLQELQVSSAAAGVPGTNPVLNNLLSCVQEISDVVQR
T22 sequence (Q9UPE1 whole entry): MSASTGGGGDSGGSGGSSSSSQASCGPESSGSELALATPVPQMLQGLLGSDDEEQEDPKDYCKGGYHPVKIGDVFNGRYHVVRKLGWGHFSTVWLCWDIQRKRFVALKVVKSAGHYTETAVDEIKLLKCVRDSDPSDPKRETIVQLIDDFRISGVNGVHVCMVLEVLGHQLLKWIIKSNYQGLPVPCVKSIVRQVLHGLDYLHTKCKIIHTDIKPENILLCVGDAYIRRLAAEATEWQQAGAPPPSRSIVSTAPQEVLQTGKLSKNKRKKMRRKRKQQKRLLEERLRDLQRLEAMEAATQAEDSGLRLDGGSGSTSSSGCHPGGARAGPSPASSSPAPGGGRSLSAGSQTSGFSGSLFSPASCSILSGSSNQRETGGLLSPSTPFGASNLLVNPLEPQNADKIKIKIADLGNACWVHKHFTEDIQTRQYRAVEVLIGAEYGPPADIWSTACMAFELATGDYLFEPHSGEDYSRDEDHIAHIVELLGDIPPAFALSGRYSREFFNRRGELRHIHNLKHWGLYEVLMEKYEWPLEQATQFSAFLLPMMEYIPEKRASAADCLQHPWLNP
T29 sequence (Q16566 whole entry): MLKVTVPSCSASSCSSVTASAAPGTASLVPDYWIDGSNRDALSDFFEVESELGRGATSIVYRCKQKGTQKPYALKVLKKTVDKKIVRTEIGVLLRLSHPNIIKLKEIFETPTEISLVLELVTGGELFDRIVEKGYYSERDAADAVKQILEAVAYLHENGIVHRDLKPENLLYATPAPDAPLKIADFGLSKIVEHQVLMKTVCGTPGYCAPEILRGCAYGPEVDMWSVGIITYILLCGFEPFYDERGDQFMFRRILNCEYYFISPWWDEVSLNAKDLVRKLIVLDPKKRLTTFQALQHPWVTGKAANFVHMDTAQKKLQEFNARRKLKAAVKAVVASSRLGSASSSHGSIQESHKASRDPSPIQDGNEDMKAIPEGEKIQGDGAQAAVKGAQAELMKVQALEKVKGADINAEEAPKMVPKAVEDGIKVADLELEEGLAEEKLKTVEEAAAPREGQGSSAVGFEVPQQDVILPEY
T14 sequence (P78368 whole entry): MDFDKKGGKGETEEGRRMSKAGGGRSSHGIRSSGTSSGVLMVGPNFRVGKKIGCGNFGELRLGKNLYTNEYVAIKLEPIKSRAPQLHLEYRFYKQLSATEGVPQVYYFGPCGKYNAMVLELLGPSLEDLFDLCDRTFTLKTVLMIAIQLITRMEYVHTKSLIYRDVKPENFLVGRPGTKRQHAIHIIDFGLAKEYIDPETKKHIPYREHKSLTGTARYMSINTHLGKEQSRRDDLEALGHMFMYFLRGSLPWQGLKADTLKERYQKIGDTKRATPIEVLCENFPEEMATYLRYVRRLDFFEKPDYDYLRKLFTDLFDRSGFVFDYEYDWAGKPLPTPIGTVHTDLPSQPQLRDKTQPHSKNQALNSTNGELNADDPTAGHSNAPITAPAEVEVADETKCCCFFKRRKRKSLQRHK
T17 sequence (Q9P1W9 whole entry): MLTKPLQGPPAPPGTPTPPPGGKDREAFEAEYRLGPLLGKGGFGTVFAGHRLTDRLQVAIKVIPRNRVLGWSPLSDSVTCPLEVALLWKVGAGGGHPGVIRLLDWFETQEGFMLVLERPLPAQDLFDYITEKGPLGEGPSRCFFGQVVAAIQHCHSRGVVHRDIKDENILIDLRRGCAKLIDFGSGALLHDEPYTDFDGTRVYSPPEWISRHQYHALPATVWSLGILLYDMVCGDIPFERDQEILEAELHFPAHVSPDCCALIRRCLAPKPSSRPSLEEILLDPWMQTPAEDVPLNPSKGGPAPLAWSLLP
T41 sequence (Q99683 whole entry): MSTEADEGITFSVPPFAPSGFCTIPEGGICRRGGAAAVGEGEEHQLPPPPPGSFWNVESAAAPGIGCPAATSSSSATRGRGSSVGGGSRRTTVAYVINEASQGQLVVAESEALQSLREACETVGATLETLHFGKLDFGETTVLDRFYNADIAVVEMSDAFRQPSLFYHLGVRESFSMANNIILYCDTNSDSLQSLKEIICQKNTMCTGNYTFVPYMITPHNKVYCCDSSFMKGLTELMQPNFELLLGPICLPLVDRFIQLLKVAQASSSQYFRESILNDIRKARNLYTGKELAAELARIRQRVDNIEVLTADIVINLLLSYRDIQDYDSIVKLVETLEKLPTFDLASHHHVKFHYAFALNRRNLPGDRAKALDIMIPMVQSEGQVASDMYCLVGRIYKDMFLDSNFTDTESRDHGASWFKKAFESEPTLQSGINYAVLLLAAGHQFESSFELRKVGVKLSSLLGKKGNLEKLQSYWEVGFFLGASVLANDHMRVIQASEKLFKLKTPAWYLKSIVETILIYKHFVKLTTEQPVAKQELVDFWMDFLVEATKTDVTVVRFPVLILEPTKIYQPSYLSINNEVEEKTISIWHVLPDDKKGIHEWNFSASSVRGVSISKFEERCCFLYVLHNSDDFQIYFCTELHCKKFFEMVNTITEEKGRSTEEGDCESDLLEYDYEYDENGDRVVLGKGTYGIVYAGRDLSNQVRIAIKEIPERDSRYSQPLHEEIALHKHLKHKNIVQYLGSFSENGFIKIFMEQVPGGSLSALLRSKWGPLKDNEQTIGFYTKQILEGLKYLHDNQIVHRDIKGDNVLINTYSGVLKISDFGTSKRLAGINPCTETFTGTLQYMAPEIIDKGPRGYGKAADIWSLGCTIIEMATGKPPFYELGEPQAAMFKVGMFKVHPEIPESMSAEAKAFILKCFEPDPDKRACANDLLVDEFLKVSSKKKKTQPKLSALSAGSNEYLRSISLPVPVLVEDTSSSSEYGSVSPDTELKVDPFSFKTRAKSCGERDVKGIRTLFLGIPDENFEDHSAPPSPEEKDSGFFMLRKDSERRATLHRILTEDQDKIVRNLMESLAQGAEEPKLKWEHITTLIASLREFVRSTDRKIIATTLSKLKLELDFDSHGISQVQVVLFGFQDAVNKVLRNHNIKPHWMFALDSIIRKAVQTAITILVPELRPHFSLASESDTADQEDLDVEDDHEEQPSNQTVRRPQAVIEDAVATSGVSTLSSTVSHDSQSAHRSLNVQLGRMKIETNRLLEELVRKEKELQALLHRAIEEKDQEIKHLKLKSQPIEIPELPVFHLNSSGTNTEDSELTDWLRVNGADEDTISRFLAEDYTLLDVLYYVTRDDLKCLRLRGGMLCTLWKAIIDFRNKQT
T40 sequence (P51812 whole entry): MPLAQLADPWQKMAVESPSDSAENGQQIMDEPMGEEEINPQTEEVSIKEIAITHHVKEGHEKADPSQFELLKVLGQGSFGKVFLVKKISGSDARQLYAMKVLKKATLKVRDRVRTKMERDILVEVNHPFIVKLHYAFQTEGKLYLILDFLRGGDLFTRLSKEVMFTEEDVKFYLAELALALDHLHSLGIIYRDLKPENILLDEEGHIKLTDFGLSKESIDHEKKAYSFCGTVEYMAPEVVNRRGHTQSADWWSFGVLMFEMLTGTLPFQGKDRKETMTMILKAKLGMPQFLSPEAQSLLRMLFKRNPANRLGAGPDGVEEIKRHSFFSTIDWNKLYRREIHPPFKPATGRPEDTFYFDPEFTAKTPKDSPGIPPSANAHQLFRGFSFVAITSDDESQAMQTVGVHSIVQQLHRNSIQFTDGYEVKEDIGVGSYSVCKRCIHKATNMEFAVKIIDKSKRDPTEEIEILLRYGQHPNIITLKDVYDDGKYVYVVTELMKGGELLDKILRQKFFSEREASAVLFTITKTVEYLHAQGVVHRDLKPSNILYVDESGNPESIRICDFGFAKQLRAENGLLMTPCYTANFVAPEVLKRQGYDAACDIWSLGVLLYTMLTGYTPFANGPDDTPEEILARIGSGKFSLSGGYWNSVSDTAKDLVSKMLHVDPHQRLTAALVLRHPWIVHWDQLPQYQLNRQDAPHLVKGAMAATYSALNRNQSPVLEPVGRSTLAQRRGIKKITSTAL

Avg POC MELK (MELK): 83.5 POC
Avg POC MAPKAP-K3 (MAPKAP-K3): 98.5 POC
Avg POC TNK2 (TNK2): 114.5 POC
Avg POC Bmx (Bmx): 100 POC
Avg POC ZAP-70 (ZAP-70): 120.5 POC
Avg POC DMPK (DMPK): 101.5 POC
Avg POC IKKbeta (IKKbeta): 104.5 POC
Avg POC PKCdelta (PKCdelta): 91.5 POC
Avg POC MLK1 (MLK1): 100.5 POC
Avg POC BTK (BTK): 117.5 POC
Avg POC Syk (Syk): 79.5 POC
Avg POC AKT3 (AKT3): 102.5 POC
Avg POC SIK (SIK): 104 POC
Avg POC CK1gamma2 (CK1gamma2): 69.5 POC
Avg POC GRK5 (GRK5): 81.5 POC
Avg POC EphB1 (EphB1): 131 POC
Avg POC Pim-2 (Pim-2): 118 POC
Avg POC ROCK-I (ROCK-I): 114 POC
Avg POC EGFR (EGFR): 107.5 POC
Avg POC PKCbetaII (PKCbetaII): 94 POC
Avg POC WNK3 (WNK3): 101.5 POC
Avg POC MSSK1 (MSSK1): 112 POC
Avg POC TSSK2 (TSSK2): 90 POC
Avg POC MYLK (MYLK): 88 POC
Avg POC MST2 (MST2): 97.5 POC
Avg POC Abl-P (Abl-P): 97 POC
Avg POC Plk3 (Plk3): 111 POC
Avg POC AURKA (AURKA): 90 POC
Avg POC CAMK4 (CAMK4): 144.5 POC
Avg POC p38gamma (p38gamma): 102.5 POC
Avg POC ERK1 (ERK1): 89.5 POC
Avg POC PKCzeta (PKCzeta): 92.5 POC
Avg POC EphB2 (EphB2): 103 POC
Avg POC NEK6 (NEK6): 92.5 POC
Avg POC FGFR1 (FGFR1): 68 POC
Avg POC Abl2 (Abl2): 95 POC
Avg POC TrkA (TrkA): −1 POC
Avg POC NEK3 (NEK3): 97.5 POC
Avg POC RIPK2 (RIPK2): 99 POC
Avg POC Rsk2 (Rsk2): 129.5 POC
Avg POC MAP3K5 (MAP3K5): 99 POC
Compound: COCc1ccc(C2CCC2)c(CNC(=O)Nc2c(C)c(-c3cnc(C)nc3)nn2-c2ccccc2)c1 [Example 10, 1-(2-cyclobutyl-5-(methoxymethyl)benzyl)-3-(4-methyl-3-(2-methylpyrimidin-5-yl)-1-phenyl-1H-pyrazol-5-yl)urea]

Avg POC MELK (MELK): 114 POC
Avg POC MAPKAP-K3 (MAPKAP-K3): 119.5 POC
Avg POC TNK2 (TNK2): 119.5 POC
Avg POC Bmx (Bmx): 127.5 POC
Avg POC ZAP-70 (ZAP-70): 149 POC
Avg POC DMPK (DMPK): 104 POC
Avg POC IKKbeta (IKKbeta): 120.5 POC
Avg POC PKCdelta (PKCdelta): 93 POC
Avg POC MLK1 (MLK1): 105.5 POC
Avg POC BTK (BTK): 125 POC
Avg POC Syk (Syk): 123.5 POC
Avg POC AKT3 (AKT3): 124 POC
Avg POC SIK (SIK): 139 POC
Avg POC CK1gamma2 (CK1gamma2): 113.5 POC
Avg POC GRK5 (GRK5): 82 POC
Avg POC EphB1 (EphB1): 133 POC
Avg POC Pim-2 (Pim-2): 146 POC
Avg POC ROCK-I (ROCK-I): 120.5 POC
Avg POC EGFR (EGFR): 116.5 POC
Avg POC PKCbetaII (PKCbetaII): 96 POC
Avg POC WNK3 (WNK3): 111 POC
Avg POC MSSK1 (MSSK1): 138.5 POC
Avg POC TSSK2 (TSSK2): 131 POC
Avg POC MYLK (MYLK): 100.5 POC
Avg POC MST2 (MST2): 98 POC
Avg POC Abl-P (Abl-P): 170.5 POC
Avg POC Plk3 (Plk3): 109.5 POC
Avg POC AURKA (AURKA): 112 POC
Avg POC CAMK4 (CAMK4): 149 POC
Avg POC p38gamma (p38gamma): 107.5 POC
Avg POC ERK1 (ERK1): 95.5 POC
Avg POC PKCzeta (PKCzeta): 99 POC
Avg POC EphB2 (EphB2): 112.5 POC
Avg POC NEK6 (NEK6): 115.5 POC
Avg POC FGFR1 (FGFR1): 96 POC
Avg POC Abl2 (Abl2): 139.5 POC
Avg POC TrkA (TrkA): −1 POC
Avg POC NEK3 (NEK3): 115.5 POC
Avg POC RIPK2 (RIPK2): 98.5 POC
Avg POC Rsk2 (Rsk2): 146 POC
Avg POC MAP3K5 (MAP3K5): 100 POC
Compound: COCc1ccc(C(F)(F)F)c(CNC(=O)Nc2c(C)c(-c3cnn(C)c3)nn2-c2ccccc2)c1 [Example 33, 1-(1′,4-dimethyl-1-phenyl-1H,1′H-[3,4′-bipyrazol]-5-yl)-3-(5-(methoxymethyl)-2-(trifluoromethyl)benzyl)urea]
